The record followed here is patent US20090258951A1, “Use of vanillyl alcohol for the treatment of Parkinson's disease” (Red Pharma & Biotech Research Corporation, priority 2008, published 2009).

For experiment [1], the system named is rat with right-side substantia nigra destroyed by 6-OHDA (6-hydroxydopamine). The experiment can be described thus: Amphetamine-induced rotation of rat with substantia nigra destroyed by 6-OHDA (animal gyroscope). Format: in vivo. The protocol:
(§1) After affixing rear head of a rat with a three-dimensional tightener and anaesthetizing the rat, then inject substantia nigra located at the right side of brain of the rat with 6-OHDA (6-hydroxydopamine) to destroy substantia nigra to make the rat produce tremor, rigidity, bradykinesia etc. Next, after the rat returns to and stays in room for 2 weeks, it is given amphetamine (5 mg/1000 g) via belly injection and then starts rotating round an animal gyroscope, wherein the number of rotations will be recorded (if the number of rotations exceeds 300 rotations per an hour, it means that the amphetamine has effected on the rat).
The substantia nigra of the brain of the rat is a tissue to release dopamine so that the injected amphetamine may accelerate the substantia nigra to release a large amount of dopamine. However, the substantia nigra located at the right side of brain of the rat has been destroyed by the 6-OHDA (6-hydroxydopamine) already unable to release dopamine any more, although the rat is injected with amphetamine for stimulation but the left side of body movement which is controlled by the right side of brain remains rigidity and bradykinesia. On the other hand, the substantia nigra located at the left side of brain of the rat is in normal condition without any injury so hyperkinesia occurs on the right side of body movement which is controlled by the left side of brain due to acceleration of amphetamine, that's why the rat keeps rotating for right turn (clockwise) and even uncontrollably.
With reference to FIG. 4, the rat is given with amphetamine about 1 mg per 1 kg of body weight thereof via belly injection and rotates round an animal gyroscope on 28th, 36th, 43rd and 52nd day respectively for right turn (clockwise) and left turn (counterclockwise), in which the number of rotations will be recorded.
With reference to FIG. 5, the rat is given with amphetamine about 1 mg per 1 kg of body weight thereof via belly injection and further provided with Vanillyl alcohol about 30 mg. Next, the rat rotates round an animal gyroscope on 28th, 36th, 43rd and 52nd day respectively for right turn (clockwise) and left turn (counterclockwise), in which the number of rotations will be recorded.

Experiment [2] shares this test system. It counts as in vivo. The protocol: as §1
The substantia nigra of the brain of the rat is a tissue to release dopamine so that the injected amphetamine may accelerate the substantia nigra to release a large amount of dopamine. […]
With reference to FIG. 7, the rat is given with L-DOPA about 50 mg per 1 kg of body weight thereof via belly injection and further provided with Vanillyl alcohol about 30 mg. […] Next, the rat rotates round an animal gyroscope on 28th, 36th, and 52nd day respectively for right turn (clockwise) and left turn (counterclockwise), in which the number of rotations will be recorded.

For `COc1cc(CO)ccc1O` [Vanillyl alcohol, 4-hydroxy-3-methoxy-benzyl alcohol], the “number of rotations for right turn (clockwise)” value in experiment [1] (amphetamine about 1 mg per 1 kg via belly injection plus Vanillyl alcohol about 30 mg, days 28, 36, 43, 52, effect since 43rd day, 52nd day most apparent (FIG. 5)) was “decreased gradually”. Besides, the “behavioral asymmetry between right side and left side” value in experiment [1] (amphetamine about 1 mg per 1 kg via belly injection plus Vanillyl alcohol about 30 mg, effect since 43rd day, 52nd day most apparent (FIG. 5)) is given as “decreased apparently”. For the same compound, the “movements of the rat” value in experiment [2] (L-DOPA about 50 mg per 1 kg via belly injection plus Vanillyl alcohol about 30 mg, benserazide 30 mg per 1 kg 30 minutes before, days 28, 36, 52 (FIG. 7)) is listed as “almost normal”. The “behavioral unbalance between right and left sides induced by L-DOPA” value in experiment [2] (Vanillyl alcohol about 30 mg in combination with L-DOPA about 50 mg per 1 kg, benserazide pre-treatment (FIG. 7)) is reported as “inhibit”.

Take `CC(N)Cc1ccccc1` (stereo not drawn) [amphetamine, reference compound]: in experiment [1] (amphetamine about 1 mg per 1 kg via belly injection alone, days 28, 36, 43, 52, symptom since 36th day (FIG. 4)), the “number of rotations for left turn (counterclockwise)” value was “decreased gradually”. Further, the “behavioral asymmetry between right side and left side” value in experiment [1] (amphetamine about 1 mg per 1 kg via belly injection alone, symptom since 36th day (FIG. 4)) is reported as “increased apparently”.
